These results are taken from patent US9233983B2, “Substituted hetero-bicyclic compounds, compositions and medicinal applications thereof” (ADVINUS THERAPEUTICS LIMITED, priority 2012, dated 2016).

SMILES strings stand for the structures. Where only a bound is given, the exact number is not on record here.

The term IC50 denotes the point on the concentration scale where inhibition reaches its midpoint.

In this assay the target is human Bruton's Tyrosine Kinase (Btk) (Homo sapiens (Human), UniProt Q06187). As to the kind of experiment: Recombinant Human Bruton's Tyrosine Kinase (Btk) Inhibition Assay (HTRF KinEASE-TK). The class given is biochemical. As to conditions: 20 ng/ml rhBtk, 77 μM ATP (KM), 1 μM TK-Biotin substrate, 90 min; read-out: hBTK IC50.
Chain of human Bruton's Tyrosine Kinase (Btk) (Q06187 whole entry): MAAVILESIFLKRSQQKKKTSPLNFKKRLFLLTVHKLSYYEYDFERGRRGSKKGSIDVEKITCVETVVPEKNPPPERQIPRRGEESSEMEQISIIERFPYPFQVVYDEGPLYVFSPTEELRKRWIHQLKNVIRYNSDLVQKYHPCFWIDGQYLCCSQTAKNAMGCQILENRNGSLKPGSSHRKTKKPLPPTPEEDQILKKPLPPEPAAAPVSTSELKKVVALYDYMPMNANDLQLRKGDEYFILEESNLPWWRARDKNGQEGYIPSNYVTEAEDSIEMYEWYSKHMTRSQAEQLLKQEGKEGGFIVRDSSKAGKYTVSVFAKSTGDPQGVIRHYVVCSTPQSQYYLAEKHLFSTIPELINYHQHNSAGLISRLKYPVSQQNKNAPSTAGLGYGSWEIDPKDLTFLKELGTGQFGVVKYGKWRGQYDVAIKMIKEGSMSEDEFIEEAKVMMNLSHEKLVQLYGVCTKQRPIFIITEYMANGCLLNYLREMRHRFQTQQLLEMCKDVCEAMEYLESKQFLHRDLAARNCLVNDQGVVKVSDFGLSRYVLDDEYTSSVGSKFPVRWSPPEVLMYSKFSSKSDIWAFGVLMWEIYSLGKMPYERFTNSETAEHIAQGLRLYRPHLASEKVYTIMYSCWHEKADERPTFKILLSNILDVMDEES
For `Cc1c(-c2ncnc3[nH]c(-c4ccc(C(=O)N5CCCCC5)cc4)cc23)cccc1N1CCOc2cc(C3CC3)ccc2C1=O` [Example K-5, 8-cyclopropyl-4-[2-methyl-3-[6-[4-(piperidine-1-carbonyl)phenyl]-7H-pyrrolo[2,3-d]pyrimidin-4-yl]phenyl]-2,3-dihydro-1,4-benzoxazepin-5-one], the IC50 stood at 171 nM.

For the molecule `Cc1c(-c2ncnc3[nH]c(C4=CCN(CCCO)CC4)cc23)cccc1N1CCOc2cc(C3CC3)ccc2C1=O` [Example P-1, 8-cyclopropyl-4-[3-[6-[1-(3-hydroxypropyl)-3,6-dihydro-2H-pyridin-4-yl]-7H-pyrrolo[2,3-d]pyrimidin-4-yl]-2-methyl-phenyl]-2,3-dihydro-1,4-benzoxazepin-5-one], the concentration for half-maximal inhibition (IC50) turned out to be 272 nM.

For `Cc1c(-c2nc(N)nc3[nH]c(-c4ccc(N5CCOCC5)nc4)cc23)cccc1N1CCOc2cc(C3CC3)ccc2C1=O` [Example N-2, 4-[3-[2-amino-6-(6-morpholino-3-pyridyl)-7H-pyrrolo[2,3-d]pyrimidin-4-yl]-2-methyl-phenyl]-8-cyclopropyl-2,3-dihydro-1,4-benzoxazepin-5-one], the IC50 came out at 181 nM.

Take `Cc1nn(C2CN(C)C2)cc1-c1cc2c(-c3cccc(N4CCOc5cc(C6CC6)ccc5C4=O)c3CO)ccnc2[nH]1` [Example E-1, 8-cyclopropyl-4-[2-(hydroxymethyl)-3-[2-[3-methyl-1-(1-methylazetidin-3-yl)pyrazol-4-yl]-1H-pyrrolo[2,3-b]pyridin-4-yl]phenyl]-2,3-dihydro-1,4-benzoxazepin-5-one]: the 50% inhibitory concentration (IC50) is 9 nM.

Consider `Cc1c(-c2ccnc3[nH]c(-c4ccc(CN5CCN(C)CC5)cc4)cc23)cccc1N1CCOc2cc(C3CC3)ccc2C1=O` [Example B-15, 8-cyclopropyl-4-[2-methyl-3-[2-[4-[(4-methylpiperazin-1-yl)methyl]phenyl]-1H-pyrrolo[2,3-b]pyridin-4-yl]phenyl]-2,3-dihydro-1,4-benzoxazepin-5-one], for which the IC50 was determined as 103 nM.

Turning to `Cc1c(-c2ncnc3[nH]c(-c4ccc(C(=O)N5CCCC(C(=O)O)C5)cc4)cc23)cccc1N1CCOc2cc(C3CC3)ccc2C1=O` (stereo not shown) [Example K-13, 1-[4-[4-[3-(8-cyclopropyl-5-oxo-2,3-dihydro-1,4-benzoxazepin-4-yl)-2-methyl-phenyl]-7H-pyrrolo[2,3-d]pyrimidin-6-yl]benzoyl]piperidine-3-carboxylic acid], the IC50 was 133 nM.

Turning to `CN1CC=C(c2ccc(-c3cc4c(-c5cccc(N6CCOc7cc(C8CC8)ccc7C6=O)c5CO)ccnc4[nH]3)cc2)CC1` [Example C-4, 8-cyclopropyl-4-[2-(hydroxymethyl)-3-[2-[4-(1-methyl-3,6-dihydro-2H-pyridin-4-yl)phenyl]-1H-pyrrolo[2,3-b]pyridin-4-yl]phenyl]-2,3-dihydro-1,4-benzoxazepin-5-one], the IC50 worked out at 11 nM.

As to `Cc1c(-c2ncnc3[nH]c(C4=CCN(CCO)CC4)cc23)cccc1N1CCOc2cc(C3CC3)ccc2C1=O` [Example P-2, 8-cyclopropyl-4-[3-[6-[1-(2-hydroxyethyl)-3,6-dihydro-2H-pyridin-4-yl]-7H-pyrrolo[2,3-d]pyrimidin-4-yl]-2-methyl-phenyl]-2,3-dihydro-1,4-benzoxazepin-5-one], the IC50 came to 611 nM.

With `O=C1c2c(F)cc(C3CC3)cc2OCCN1c1cccc(-c2ccnc3[nH]c(-c4ccc(OCCN5CCOCC5)cn4)cc23)c1CO` [Example Q-1, 8-cyclopropyl-6-fluoro-4-[2-(hydroxymethyl)-3-[2-[5-(2-morpholinoethoxy)-2-pyridyl]-1H-pyrrolo[2,3-b]pyridin-4-yl]phenyl]-2,3-dihydro-1,4-benzoxazepin-5-one], the IC50 came out at 2.9 nM.

Take `CCN1CCN(Cc2ccc(-c3cc4c(-c5cccc(N6CCOc7cc(C8CC8)ccc7C6=O)c5CO)ccnc4[nH]3)cn2)CC1` [Example B-21, 8-cyclopropyl-4-[3-[2-[6-[(4-ethylpiperazin-1-yl)methyl]-3-pyridyl]-1H-pyrrolo[2,3-b]pyridin-4-yl]-2-(hydroxymethyl)phenyl]-2,3-dihydro-1,4-benzoxazepin-5-one]: the IC50 amounted to 8 nM.

`O=C1c2ccc(C3CC3)cc2OCCN1c1cccc(-c2ccnc3[nH]c(-c4ccc(C(O)CO)cc4)cc23)c1CO` (stereo not shown) [Example P-8, 8-cyclopropyl-4-[3-[2-[4-(1,2-dihydroxyethyl)phenyl]-1H-pyrrolo[2,3-b]pyridin-4-yl]-2-(hydroxymethyl)phenyl]-2,3-dihydro-1,4-benzoxazepin-5-one]: the IC50 was 25 nM.

`Cc1c(-c2ncnc3[nH]c(-c4ccc(CN5CCN(C)CC5)cc4)cc23)cccc1N1CCc2cc(C3CC3)ccc2C1=O` [Example B-3, 6-cyclopropyl-2-[2-methyl-3-[6-[4-[(4-methylpiperazin-1-yl)methyl]phenyl]-7H-pyrrolo[2,3-d]pyrimidin-4-yl]phenyl]-3,4-dihydroisoquinolin-1-one]: the IC50 amounted to 30 nM.

As to `CN1CCN(c2ccc(-c3cc4c(-c5cccc(N6CCOc7cc(C8CC8)ccc7C6=O)c5CO)ccnc4[nH]3)nc2)CC1` [Example S-3, 8-cyclopropyl-4-[2-(hydroxymethyl)-3-[2-[5-(4-methylpiperazin-1-yl)-2-pyridyl]-1H-pyrrolo[2,3-b]pyridin-4-yl]phenyl]-2,3-dihydro-1,4-benzoxazepin-5-one], the IC50 stood at 3 nM.

As to `Cc1c(-c2ncnc3[nH]c(-c4ccc(C(=O)N5CCCC(O)C5)cc4)cc23)cccc1N1CCOc2cc(C3CC3)ccc2C1=O` (stereo not shown) [Example K-3, 8-cyclopropyl-4-[3-[6-[4-(3-hydroxypiperidine-1-carbonyl)phenyl]-7H-pyrrolo[2,3-d]pyrimidin-4-yl]-2-methyl-phenyl]-2,3-dihydro-1,4-benzoxazepin-5-one], the IC50 came out at 42 nM.

On to `Cc1c(-c2ncnc3[nH]c(-c4ccc(N5CCOCC5)cc4)cc23)cccc1N1CCOc2cc(C3CC3)ccc2C1=O` [Example M-3, 8-cyclopropyl-4-[2-methyl-3-[6-(4-morpholinophenyl)-7H-pyrrolo[2,3-d]pyrimidin-4-yl]phenyl]-2,3-dihydro-1,4-benzoxazepin-5-one], for which the IC50 is greater than 1000 nM.

Take `Cc1c(-c2ncnc3[nH]c(-c4cccc(CN5CCNCC5)c4)cc23)cccc1N1CCc2cc(C3CC3)ccc2C1=O` [Example A-3, 6-cyclopropyl-2-[2-methyl-3-[6-[3-(piperazin-1-ylmethyl)phenyl]-7H-pyrrolo[2,3-d]pyrimidin-4-yl]phenyl]-3,4-dihydroisoquinolin-1-one]: the IC50 was 515 nM.

In the case of `Cc1c(-c2ncnc3[nH]c(-c4ccc(CN5CCC(C)(O)CC5)cc4)cc23)cccc1N1CCc2cc(C3CC3)ccc2C1=O` [Example B-12, 6-cyclopropyl-2-[3-[6-[4-[(4-hydroxy-4-methyl-1-piperidyl)methyl]phenyl]-7H-pyrrolo[2,3-d]pyrimidin-4-yl]-2-rnethyl-phenyl]-3,4-dihydroisoquinolin-1-one], the IC50 came to 115 nM.

Regarding `CCN1CCN(Cc2ccc(-c3cc4c(-c5cccc(N6CCc7cc(C8CC8)ccc7C6=O)c5C)ncnc4[nH]3)cc2)CC1` [Example B-4, 6-cyclopropyl-2-[3-[6-[4-[(4-ethylpiperazin-1-yl)methyl]phenyl]-7H-pyrrolo[2,3-d]pyrimidin-4-yl]-2-methyl-phenyl]-3,4-dihydroisoquinolin-1-one], the IC50 was 41 nM.

Consider `CC1(O)CN(C(=O)c2ccc(-c3cc4c(-c5cccc(N6CCOc7cc(C8CC8)cc(F)c7C6=O)c5CO)ccnc4[nH]3)nc2)C1` [Example L-4, 8-cyclopropyl-6-fluoro-4-[2-(hydroxymethyl)-3-[2-[5-(3-hydroxy-3-methyl-azetidine-1-carbonyl)-2-pyridyl]-1H-pyrrolo[2,3-b]pyridin-4-yl]phenyl]-2,3-dihydro-1,4-benzoxazepin-5-one], for which the IC50 worked out at 43 nM.

Regarding `Cc1c(-c2ncnc3[nH]c(-c4ccc(C(=O)N5CCC(C(=O)O)CC5)cc4)cc23)cccc1N1CCOc2cc(C3CC3)ccc2C1=O` [Example K-14, 1-[4-[4-[3-(8-cyclopropyl-5-oxo-2,3-dihydro-1,4-benzoxazepin-4-yl)-2-methyl-phenyl]-7H-pyrrolo[2,3-d]pyrimidin-6-yl]benzoyl]piperidine-4-carboxylic acid], the IC50 was greater than 1000 nM.

On to `COC1CN(C(=O)c2ccc(-c3cc4c(-c5cccc(N6CCOc7cc(C8CC8)ccc7C6=O)c5C)ncnc4[nH]3)cc2)C1` [Example K-11, 8-cyclopropyl-4-[3-[6-[4-(3-methoxyazetidine-1-carbonyl)phenyl]-7H-pyrrolo[2,3-d]pyrimidin-4-yl]-2-methyl-phenyl]-2,3-dihydro-1,4-benzoxazepin-5-one], for which the IC50 was found to be 162 nM.

`Cc1c(-c2ccnc3[nH]c(-c4ccc(CN5CCN(C)CC5)c(F)c4)cc23)cccc1N1CCOc2cc(C3CC3)ccc2C1=O` [Example B-19, 8-cyclopropyl-4-[3-[2-[3-fluoro-4-[(4-methylpiperazin-1-yl)methyl]phenyl]-lH-pyrrolo[2,3-b]pyridin-4-yl]-2-methyl-phenyl]-2,3-dihydro-1,4-benzoxazepin-5-one]: the IC50 is 190 nM.

For `Cc1c(-c2ncnc3[nH]c(-c4ccc(CN5CCOCC5)cc4)cc23)cccc1N1CCc2cc(C3CC3)ccc2C1=O` [Example A-6, 6-cyclopropyl-2-[2-methyl-3-[6-[4-(morpholinomethyl)phenyl]-7H-pyrrolo[2,3-d]pyrimidin-4-yl]phenyl]-3,4-dihydroisoquinolin-1-one], the IC50 worked out at 143 nM.

As for `Cc1c(-c2ncnc3[nH]c(-c4cccc(CN5CCOCC5)c4)cc23)cccc1N1CCOc2cc(C3CC3)ccc2C1=O` [Example A-7, 8-cyclopropyl-4-[2-methyl-3-[6-[3-(morpholinomethyl)phenyl]-7H-pyrrolo[2,3-d]pyrimidin-4-yl]phenyl]-2,3-dihydro-1,4-benzoxazepin-5-one], the IC50 amounted to 415 nM.

With `Cc1c(-c2ncnc3[nH]c(-c4cccc(CN5CCNCC5)c4)cc23)cccc1N1CCOc2cc(C3CC3)ccc2C1=O` [Example A-4, 8-cyclopropyl-4-[2-methyl-3-[6-[3-(piperazin-l-ylmethyl)phenyl]-7H-pyrrolo[2,3-d]pyrimidin-4-yl]phenyl]-2.3-dihydro-l,4-benzoxazepin-5-one], the IC50 amounted to 396 nM.
